The source of these data is patent publication US7135466B2 (Kirin Beer Kabushiki Kaisha, priority 1999, dated 2006).

As usually defined, the IC50 is the concentration that inhibits the measured activity by half. Broadly, the inhibition is the percentage by which the read-out fell short of the control.

Molecules are shown by their SMILES. Where only a bound is given, the exact number is not on record here.

The target of one assay is T1, PDGF-Ra (Homo sapiens, UniProt P16234).
T1 construct: host or cells: G-292 human osteosarcoma cells
Nature of the assay: Inhibitory activity against PDGF-Ra phosphorylation by PDGF-AA stimulation using G292. It is filed as cell-based. The settings on record: Pharmacological Test Example 1; > means inhibition at indicated concentration not more than 50%, < and << not less than 50%; read-out: PDGF (E) IC50. In short, it runs like this: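 G-292 human osteosarcoma cells in 0.1% FBS medium overnight, given compound for 1 hr at 37° C, then PDGF-AA 50 ng/ml for 5 min. Lysates captured on anti-phosphotyrosine (PY-20) plates and probed with anti-PDGF-Ra plus HRP secondary; absorbance at 450 nm.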

Another assay has as its target T2, c-kit (Homo sapiens, UniProt P10721).
T2 construct: MO7e (human megakaryocytic leukemia cell line) which had been arrested for 20 hr; endogenous in cells; host or cells: MO7e human megakaryocytic leukemia cell line
The assay can be described thus: Inhibitory activity against c-kit autophosphorylation (MO7e cells, h-SCF). Format: cell-based. The settings on record: for IC50: MO7e cells, h-SCF 50 ng/ml, read-out: c-kit IC50. In a few lines:
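First, human megakaryocytic leukemia MO7e cells arrested 20 hr receive compound for one hour. Second, SCF stimulation (50 ng/ml) runs 5 min, after which cells are solubilized. Third, tyrosine-phosphorylated c-kit in the lysate is quantified by sandwich ELISA with absorbance at 450 nm.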

T1 sequence (P16234 24-1089): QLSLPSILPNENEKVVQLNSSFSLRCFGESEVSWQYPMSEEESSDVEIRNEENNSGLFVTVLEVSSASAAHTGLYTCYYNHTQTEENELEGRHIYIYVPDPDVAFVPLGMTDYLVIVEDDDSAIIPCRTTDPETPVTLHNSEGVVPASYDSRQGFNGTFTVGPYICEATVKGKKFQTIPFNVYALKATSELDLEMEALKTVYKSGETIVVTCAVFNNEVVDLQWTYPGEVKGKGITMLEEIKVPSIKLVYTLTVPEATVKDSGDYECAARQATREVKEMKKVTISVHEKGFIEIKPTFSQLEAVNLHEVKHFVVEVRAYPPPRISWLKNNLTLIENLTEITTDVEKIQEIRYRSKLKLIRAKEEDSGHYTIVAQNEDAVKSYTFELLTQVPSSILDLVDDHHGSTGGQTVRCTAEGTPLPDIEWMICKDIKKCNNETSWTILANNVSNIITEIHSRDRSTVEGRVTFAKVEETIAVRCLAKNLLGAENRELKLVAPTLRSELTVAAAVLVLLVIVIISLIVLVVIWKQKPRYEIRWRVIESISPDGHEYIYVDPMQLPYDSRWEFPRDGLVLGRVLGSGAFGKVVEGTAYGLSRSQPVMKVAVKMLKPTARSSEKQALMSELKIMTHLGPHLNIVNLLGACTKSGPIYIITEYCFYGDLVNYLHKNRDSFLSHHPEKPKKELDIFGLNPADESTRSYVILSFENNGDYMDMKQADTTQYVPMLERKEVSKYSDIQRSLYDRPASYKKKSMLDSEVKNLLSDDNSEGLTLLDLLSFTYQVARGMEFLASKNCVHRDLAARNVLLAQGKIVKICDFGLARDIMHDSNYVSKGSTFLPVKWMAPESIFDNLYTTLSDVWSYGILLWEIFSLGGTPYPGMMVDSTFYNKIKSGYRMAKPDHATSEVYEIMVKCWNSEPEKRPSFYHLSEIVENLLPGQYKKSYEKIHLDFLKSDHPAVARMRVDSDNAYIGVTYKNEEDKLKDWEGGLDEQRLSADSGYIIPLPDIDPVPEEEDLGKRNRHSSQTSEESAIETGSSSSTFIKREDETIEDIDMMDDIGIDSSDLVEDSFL
T2 sequence (P10721 26-976): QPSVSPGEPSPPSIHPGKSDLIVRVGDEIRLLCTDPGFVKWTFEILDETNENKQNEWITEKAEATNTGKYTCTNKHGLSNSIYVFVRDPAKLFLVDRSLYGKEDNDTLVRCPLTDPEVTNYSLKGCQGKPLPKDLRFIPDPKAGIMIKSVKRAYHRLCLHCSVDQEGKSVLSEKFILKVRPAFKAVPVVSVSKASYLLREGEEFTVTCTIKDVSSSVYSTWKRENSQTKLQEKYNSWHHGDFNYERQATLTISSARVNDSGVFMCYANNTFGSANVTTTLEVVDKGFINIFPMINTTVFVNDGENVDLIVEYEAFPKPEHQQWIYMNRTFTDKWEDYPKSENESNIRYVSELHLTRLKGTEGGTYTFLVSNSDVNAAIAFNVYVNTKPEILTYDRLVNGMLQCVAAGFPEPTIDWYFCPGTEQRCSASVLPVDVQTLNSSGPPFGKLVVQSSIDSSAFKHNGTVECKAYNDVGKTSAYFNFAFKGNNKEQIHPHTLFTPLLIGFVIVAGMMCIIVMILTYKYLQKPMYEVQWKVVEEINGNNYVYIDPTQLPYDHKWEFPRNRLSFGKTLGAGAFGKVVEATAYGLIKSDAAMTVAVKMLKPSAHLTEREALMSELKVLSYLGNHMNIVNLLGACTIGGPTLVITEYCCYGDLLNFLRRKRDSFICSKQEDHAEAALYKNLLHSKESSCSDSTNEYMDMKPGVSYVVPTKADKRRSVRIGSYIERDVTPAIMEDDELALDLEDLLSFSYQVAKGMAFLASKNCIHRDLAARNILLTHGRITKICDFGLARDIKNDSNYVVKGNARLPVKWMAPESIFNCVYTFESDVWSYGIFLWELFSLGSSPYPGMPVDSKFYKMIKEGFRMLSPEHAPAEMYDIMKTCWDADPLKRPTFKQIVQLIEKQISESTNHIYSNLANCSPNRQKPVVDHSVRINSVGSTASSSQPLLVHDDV

Turning to `COc1cc2nccc(Oc3ccc(NC(=O)OC(C)c4cccc(Cl)c4)c(C)c3C)c2cc1OC` (stereo not drawn) [Example 4, 1-(3-Chlorophenyl)ethyl N-{4-[(6,7-dimethoxy-4-quinolyl)oxy]-2,3-dimethylphenyl}carbamate], the IC50 on PDGF-Ra was < 10 nM; at c-kit, 133 nM.
Take `COc1cc2nccc(Oc3cc(C)c(NC(=O)OC(C)c4cccc(Cl)c4)cc3C)c2cc1OC` (stereo not drawn) [Example 5, 1-(3-Chlorophenyl)ethyl N-{4-[(6,7-dimethoxy-4-quinolyl)oxy]-2,5-dimethylphenyl}carbamate]: the IC50 on PDGF-Ra turned out to be 24 nM; on c-kit, 336 nM.
For the molecule `COc1cc2ncnc(Oc3ccc(NC(=O)OC(C)c4cccc(Cl)c4)cc3)c2cc1OC` (stereo not drawn) [Example 6, 1-(3-Chlorophenyl)ethyl N-{4-[(6,7-dimethoxy-4-quinazolinyl)oxy]phenyl}carbamate], the IC50 at PDGF-Ra was < 10 nM; at c-kit, 175 nM.
Consider `COc1cc2ncnc(Oc3ccc(NC(=O)OC(C)c4cccc(Cl)c4)c(Cl)c3)c2cc1OC` (stereo not drawn) [Example 7], for which the IC50 at PDGF-Ra was 12 nM; at c-kit, 616 nM.
The matching figures for `COc1cc2nccc(Oc3ccc(NC(=O)OCc4ccc(F)cc4)cc3)c2cc1OC` [Example 8, 4-Fluorobenzyl N-{4-[(6,7-dimethoxy-4-quinolyl)oxy]phenyl}carbamate]: < 10 nM and 62 nM.
`COc1cc2nccc(Oc3ccc(NC(=O)OCc4ccc(F)cc4)c(C)c3C)c2cc1OC` [Example 9, 4-Fluorobenzyl N-{4-[(6,7-dimethoxy-4-quinolyl)oxy]-2,3-dimethylphenyl}carbamate]: the IC50 is < 10 nM at PDGF-Ra and 45 nM on c-kit.
On to `COc1cc2nccc(Oc3cc(C)c(NC(=O)OCc4ccc(F)cc4)cc3C)c2cc1OC` [Example 10, 4-Fluorobenzyl N-{4-[(6,7-dimethoxy-4-quinolyl)oxy]-2,5-dimethylphenyl}carbamate], for which the IC50 on PDGF-Ra stood at 11 nM; on c-kit, 106 nM.
For `COc1cc2ncnc(Oc3ccc(NC(=O)OCc4ccc(F)cc4)cc3)c2cc1OC` [Example 11, 4-Fluorobenzyl N-{4-[(6,7-dimethoxy-4-quinazolinyl)oxy]phenyl}carbamate], in that order: < 10 nM and 36 nM.
`COc1cc2ncnc(Oc3ccc(NC(=O)OCc4ccc(F)cc4)c(Cl)c3)c2cc1OC` [Example 12, 4-Fuorobenzyl N-{2-chloro-4-[(6,7-dimethoxy-4-quinazolinyl)oxy]phenyl}carbamate]: the results for the half-maximal inhibitory concentration (IC50) on PDGF-Ra and at c-kit were 11 nM and 389 nM, respectively.
For `COc1cc2nccc(Oc3ccc(NC(=O)OC(C)c4ccccc4Cl)cc3)c2cc1OC` (stereo not drawn) [Example 13, 1-(2-Chlorophenyl)ethyl N-{4-[(6,7-dimethoxy-4-quinolyl)oxy]phenyl}carbamate], in that order: < 10 nM and 135 nM.
For the molecule `COc1cc2nccc(Oc3ccc(NC(=O)OC(C)c4ccccc4Cl)c(C)c3C)c2cc1OC` (stereo not drawn) [Example 14, 1-(2-Chlorophenyl)ethyl N-{4-[(6,7-dimethoxy-4-quinolyl)oxy]-2,3-dimethylphenyl}carbamate], the IC50 came to 12 nM on PDGF-Ra and 209 nM at c-kit.
On to `COc1cc2ncnc(Oc3ccc(NC(=O)OC(C)c4ccccc4Cl)cc3)c2cc1OC` (stereo not drawn) [Example 15, 1-(2-Chlorophenyl)ethyl N-{4-[(6,7-dimethoxy-4-quinazolinyl)oxy]phenyl}carbamate], for which the IC50 at PDGF-Ra turned out to be 21 nM. Moreover, the inhibition at 1 µM at c-kit (Mo7e, figure in parentheses in −( ), at 1000 nM) was found to be 48%.
Take `COc1cc2ncnc(Oc3ccc(NC(=O)OC(C)c4ccccc4Cl)c(Cl)c3)c2cc1OC` (stereo not drawn) [Example 16, 1-(2-Chlorophenyl)ethyl N-{2-chloro-4-[(6,7-dimethoxy-4-quinazolinyl)oxy]phenyl}carbamate]: the IC50 is < 10 nM at PDGF-Ra and 495 nM on c-kit.
For `COc1cc2nccc(Oc3ccc(NC(=O)OCCCOc4ccccc4Cl)c(C)c3C)c2cc1OC` [Example 17, 3-(2-Chlorophenoxy)propyl N-{4-[(6,7-dimethoxy-4-quinolyl)oxy]-2,3-dimethylphenyl}carbamate], in that order: < 10 nM and 57 nM.
In the case of `COc1cc2nccc(Oc3cc(C)c(NC(=O)OCCCOc4ccccc4Cl)cc3C)c2cc1OC` [Example 18, 3-(2-Chlorophenoxy)propyl N-{4-[(6,7-dimethoxy-4-quinolyl)oxy]-2,5-dimethylphenyl}carbamate], the IC50 on PDGF-Ra stood at 22 nM; on c-kit, 93 nM.
For `COc1cc2ncnc(Oc3ccc(NC(=O)OCCCOc4ccccc4Cl)cc3)c2cc1OC` [Example 19, 3-(2-Chlorophenoxy)propyl N-{4-[(6,7-dimethoxy-4-quinazolinyl)oxy]phenyl}carbamate], in that order: < 10 nM and 41 nM.
Regarding `COc1cc2ncnc(Oc3ccc(NC(=O)OCCCOc4ccccc4Cl)c(Cl)c3)c2cc1OC` [Example 20, 3-(2-Chlorophenoxy)propyl N-{2-chloro-4-[(6,7-dimethoxy-4-quinazolinyl)oxy]phenyl}carbamate], the IC50 on PDGF-Ra is < 10 nM; on c-kit, 109 nM.
As for `COc1cc2nccc(Oc3ccc(NC(=O)OCc4ccc(C(F)(F)F)cc4)cc3)c2cc1OC` [Example 21, 4-(Trifluoromethyl)benzyl N-{4-[(6,7-dimethoxy-4-quinolyl)oxy]phenyl}carbamate], the IC50 at PDGF-Ra is < 10 nM; at c-kit, 135 nM.
Consider `COc1cc2nccc(Oc3ccc(NC(=O)OCc4ccc(C(F)(F)F)cc4)c(C)c3C)c2cc1OC` [Example 22, 4-(Trifluoromethyl)benzyl N-{4-[(6,7-dimethoxy-4-quinolyl)oxy]-2,3-dimethylphenyl}carbamate], for which the figures for the IC50 at PDGF-Ra and on c-kit were < 10 nM and 186 nM, respectively.
With `COc1cc2nccc(Oc3cc(C)c(NC(=O)OCc4ccc(C(F)(F)F)cc4)cc3C)c2cc1OC` [Example 23, 4-(Trifluoromethyl)benzyl N-{4-[(6,7-dimethoxy-4-quinolyl)oxy]-2,5-dimethylphenyl}carbamate], the IC50 is < 10 nM on PDGF-Ra and 475 nM on c-kit.
The matching figures for `COc1cc2ncnc(Oc3ccc(NC(=O)OCc4ccc(C(F)(F)F)cc4)cc3)c2cc1OC` [Example 24, 4-(Trifluoromethyl)benzyl N-{4-[(6,7-dimethoxy-4-quinazolinyl)oxy]phenyl}carbamate]: < 10 nM and 129 nM.
The matching figures for `COc1cc2ncnc(Oc3ccc(NC(=O)OCc4ccc(C(F)(F)F)cc4)c(Cl)c3)c2cc1OC` [Example 25, 4-(Trifluoromethyl)benzyl N-{2-chloro-4-[(6,7-dimethoxy-4-quinazolinyl)oxy]phenyl}carbamate]: < 10 nM and 566 nM.
For `COc1cc2nccc(Oc3ccc(NC(=O)OCCCOc4ccccc4Cl)cc3)c2cc1OC` [Example 26, 3-(2-Chlorophenoxy)propyl N-{4-[(6,7-dimethoxy-4-quinolyl)oxy]phenyl}carbamate], in that order: < 10 nM and 44 nM.
With `COc1cc2nccc(Oc3ccc(NC(=O)OCCCOc4ccc(Cl)cc4)cc3)c2cc1OC` [Example 27, 3-(4-Chlorophenoxy)propyl N-{4-[(6,7-dimethoxy-4-quinolyl)oxy]phenyl}carbamate], the IC50 is < 10 nM on PDGF-Ra and 76 nM on c-kit.
